biological target: T1, human Y5 receptor (Homo sapiens, UniProt Q15761); experiment: Y5 receptor binding inhibition test; details: not given
T1 sequence (Q15761 1-445): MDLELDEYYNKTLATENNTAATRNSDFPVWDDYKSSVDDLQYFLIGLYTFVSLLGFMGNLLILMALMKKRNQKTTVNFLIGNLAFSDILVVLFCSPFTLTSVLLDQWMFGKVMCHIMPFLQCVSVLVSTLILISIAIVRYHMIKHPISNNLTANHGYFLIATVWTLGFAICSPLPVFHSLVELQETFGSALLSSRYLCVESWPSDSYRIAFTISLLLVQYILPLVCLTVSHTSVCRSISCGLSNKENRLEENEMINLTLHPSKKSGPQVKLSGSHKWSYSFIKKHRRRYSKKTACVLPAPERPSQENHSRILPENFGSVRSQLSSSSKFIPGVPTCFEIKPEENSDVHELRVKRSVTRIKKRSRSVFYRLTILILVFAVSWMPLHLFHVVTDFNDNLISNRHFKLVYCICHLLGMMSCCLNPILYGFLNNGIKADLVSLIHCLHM

Row | Structure (SMILES) | % Inhibition ratio (10 μM)
1 | CC(C)n1c2c(c3cc(NC(=O)N(C)CCO)ccc31)CCCC2 [Compound 5-4] | 101%
2 | CC(C)n1c2c(c3cc(NC(=O)NCCO)ccc31)CCCC2 [Compound 4-2] | 89%

same assay, conditions: 2 h, read-out: % Inhibition ratio (10 μM)

Row | inhibition at 10 µM | Structure (SMILES)
3 | 98% | CCn1c2ccccc2c2cc(C(=O)NCCCCCNS(=O)(=O)N(C)C)ccc21 [Compound 1-24]
4 | 91% | CCOc1c(C(=O)NCCCCCNS(=O)(=O)c2cccc3ccccc23)ccc2c1c1c(n2CC)CCCC1 [Compound 1-40]
5 | 80% | CCOc1c(C(=O)NCCCCCNS(=O)(=O)c2cccc3ccccc23)ccc2c1c1ccccc1n2CC [Compound 1-39]
6 | 52% | CCn1c2ccccc2c2c(O)c(C(=O)NCCCCCNS(=O)(=O)c3cccc4ccccc34)ccc21 [Compound 1-41]
7 | 89% | CCn1c2ccccc2c2cc(C(=O)NCCNCCNS(=O)(=O)c3cccc4ccccc34)ccc21 [Compound 1-29]
8 | 88% | CCn1c2c(c3cc(C(=O)NCCOCCNS(=O)(=O)C(C)C)ccc31)CCCC2 [Compound 1-52]
9 | 71% | CCn1c2c(c3cc(C(=O)NCCOCCSc4ncn[nH]4)ccc31)CCCC2 [Compound 2-1]
10 | 100% | CCn1c2ccccc2c2cc(NC(=O)C3CC3)ccc21 [Compound 3-5]
11 | 77% | CCCCCCCCS(=O)(=O)NCCCCCNC(=O)c1ccc2c(c1)c1ccccc1n2CC [Compound 1-12]
12 | 89% | CCn1c2ccccc2c2cc(C(=O)NCCCCCNS(=O)(=O)c3cccnc3)ccc21 [Compound 1-57]
13 | 100% | CCn1c2ccccc2c2cc(NC(=O)CCNS(=O)(=O)c3cccc4ccccc34)ccc21 [Compound 1-4]
14 | 94% | CCn1c2ccccc2c2cc(C(=O)NCCCCCN3C(=O)c4ccccc4C3=O)ccc21 [Compound 1-56]
15 | 99% | CCn1c2ccccc2c2cc(C(=O)NCCN(C)CCNS(=O)(=O)c3cccc4ccccc34)ccc21 [Compound 1-30]
16 | 95% | CCn1c2ccccc2c2cc(NC(=O)CCCCNS(=O)(=O)c3cccc4ccccc34)ccc21 [Compound 1-1]
17 | 98% | CCn1c2ccccc2c2cc(NC(=O)CCCNS(=O)(=O)c3cccc4ccccc34)ccc21 [Compound 1-5]
18 | 88% | CCn1c2ccccc2c2cc(C(=O)NC(C)CCCCNS(=O)(=O)c3cccc4ccccc34)ccc21 (stereo not shown) [Compound 1-34]
19 | 85% | CCn1c2c(c3cc(C(=O)NCCOCCn4nnnc4N)ccc31)CCCC2 [Compound 2-4]
20 | 86% | CCn1c2ccccc2c2cc(C(=O)NCCCCCNC(=O)C34CC5CC(CC(C5)C3)C4)ccc21 [Compound 1-20]

Further lines, the compound ahead of its results:

Row | Structure (SMILES) | inhibition at 10 µM
21 | CCn1c2ccccc2c2cc(C(=O)NCCCCCNS(=O)(=O)C(C)C)ccc21 [Compound 1-13] | 109%
22 | CCn1c2c(c3cc(C(=O)NCCCCCNS(=O)(=O)c4cccc5ccccc45)c(O)cc31)CCCC2 [Compound 1-43] | 54%
23 | Cn1c2ccccc2c2cc(C(=O)NCCCCCNS(=O)(=O)c3cccc4ccccc34)ccc21 [Compound 1-46] | 102%
24 | CCn1c2ccccc2c2cc(NC(=O)COC)ccc21 [Compound 3-7] | 95%
25 | CCn1c2ccccc2c2cc(C(=O)NCCCCCNS(=O)(=O)c3ccc4ccccc4c3)ccc21 [Compound 1-14] | 106%
26 | CCn1c2ccccc2c2cc(C(=O)NCCCCCNS(=O)(=O)c3cccc4c(N(C)C)cccc34)ccc21 [Compound 1-17] | 93%
27 | CC(C)n1c2c(c3cc(NC(=O)N(C)CCc4ccncc4)c(F)cc31)CCCC2 [Compound 12-1] | 100%
28 | CC(C)S(=O)(=O)NCCCCCNC(=O)c1ccc2c(c1)c1c(n2CCO)CCCC1 [Compound 1-59] | 93%
29 | CCn1c2c(c3c(O)c(C(=O)NCCCCCNS(=O)(=O)c4cccc5ccccc45)ccc31)CCCC2 [Compound 1-44] | 69%
30 | CCn1c2ccccc2c2cc(C(=O)NC3CCC(CNS(=O)(=O)c4cccc5ccccc45)CC3)ccc21 (stereo not shown) [Compound 1-35] | 75%
31 | CCn1c2ccccc2c2cc(C(=O)NCCOCCNS(=O)(=O)c3cccc4ccccc34)ccc21 [Compound 1-28] | 100%
32 | CCCCn1c2ccccc2c2cc(C(=O)NCCCCCNS(=O)(=O)c3cccc4ccccc34)ccc21 [Compound 1-48] | 96%
33 | CCn1c2ccccc2c2cc(C(=O)NCCCCCNC(=O)c3ccc4[nH]ccc4c3)ccc21 [Compound 1-25] | 100%

same assay, conditions: test compound 10 μM; 3H-NPY; membrane of insect cells expressing human Y5 receptor; 4° C., 2 hours; relative to Y5 specific binding in solvent group

Row | % Inhibition ratio (10 μM) | Structure (SMILES)
34 | 87% | CC(C)n1c2c(c3cc(NC(=O)N(C)CCN4CCN(C)CC4)ccc31)CCCC2 [Compound 5-15]
35 | 88% | CC(C)n1c2c(c3cc(NC(=O)N4CCC[C@@H]4CO)ccc31)CCCC2 [Compound 7-6]
36 | 100% | CC(C)n1c2c(c3cc(NC(=O)N(C)CCCn4ccnc4)ccc31)CCCC2 [Compound 5-22]
37 | 100% | CC(C)n1c2c(c3cc(NC(=O)N4CCC[C@H]4CO)ccc31)CCCC2 [Compound 7-5]
38 | 100% | COCCCCN(C)C(=O)Nc1ccc2c(c1)c1c(n2C(C)C)CCCC1 [Compound 5-7]
39 | 90% | CC(C)n1c2c(c3cc(NC(=O)N4CCC(O)C4)ccc31)CCCC2 (stereo not shown) [Compound 7-4]
40 | 97% | CC(C)N(C)C(=O)Nc1ccc2c(c1)c1c(n2C(C)C)CCCC1 [Compound 5-2]

Second part, the compound before the results:

Row | Structure (SMILES) | % Inhibition ratio (10 μM)
41 | CC(C)n1c2c(c3cc(NC(=O)N(C)CCN4CCCCC4)ccc31)CCCC2 [Compound 5-14] | 95%
42 | CC(C)n1c2c(c3cc(NC(=O)N(C)CCOCCO)ccc31)CCCC2 [Compound 5-10] | 104%
43 | CC(C)n1c2c(c3cc(NC(=O)N4CCN(c5ccccn5)CC4)ccc31)CCCC2 [Compound 7-20] | 89%
44 | CC(C)n1c2c(c3cc(NC(=O)N4CCN(C)CC4)ccc31)CCCC2 [Compound 7-19] | 75%
45 | CC(C)n1c2c(c3cc(NC(=O)N4CCSCC4)ccc31)CCCC2 [Compound 7-15] | 88%
46 | CC(C)n1c2c(c3cc(NC(=O)N4CCCCC4CO)ccc31)CCCC2 (stereo not shown) [Compound 7-9] | 91%
47 | CC(C)n1c2c(c3cc(NC(=O)N4CCN(c5ncccn5)CC4)ccc31)CCCC2 [Compound 7-21] | 80%
48 | CCCCn1c2c(c3cc(NC(=O)N4CCOCC4)ccc31)CCCC2 [Compound 8-5] | 85%
49 | CC(C)n1c2c(c3cc(NC(=O)N4CCCC(CO)C4)ccc31)CCCC2 (stereo not shown) [Compound 7-10] | 97%
50 | CC(C)n1c2c(c3cc(NC(=O)N4CCCCC4CCO)ccc31)CCCC2 (stereo not shown) [Compound 7-11] | 95%
51 | CC(C)n1c2c(c3cc(NC(=O)N(C)Cc4ccncc4)ccc31)CCCC2 [Compound 5-17] | 100%
52 | CC(C)n1c2c(c3cc(NC(=O)N4C[C@@H](C)O[C@@H](C)C4)ccc31)CCCC2 [Compound 7-16] | 96%
53 | CC(C)n1c2c(c3cc(NC(=O)N(C)CCc4ccncc4)ccc31)CCC2 [Compound 10-3] | 95%
54 | O=C(Nc1ccc2c(c1)c1c(n2CC2CC2)CCCC1)N1CCOCC1 [Compound 8-7] | 100%
55 | CC(C)n1c2c(c3cc(NC(=O)N(C)CCc4ccncc4)ccc31)CCCCC2 [Compound 11-3] | 100%
56 | CC(C)n1c2c(c3cc(NC(=O)N4CCC(CCO)CC4)ccc31)CCCC2 [Compound 7-12] | 94%
57 | CC(C)n1c2c(c3cc(NC(=O)N(C)CCc4ccccn4)ccc31)CCCC2 [Compound 5-18] | 100%
58 | CC(C)n1c2c(c3cc(NC(=O)N(C)CC(O)CO)ccc31)CCCC2 (stereo not shown) [Compound 5-26] | 108%

From patent US6713473B1, “Tricyclic compounds” (Meiji Seika Kaisha, Ltd., priority 1999, dated 2004)
